“And” between values parts separate entries of the source, which are not always exact repeats. Equal values may be shown once. Inconclusive results and toxic doses are left out. Rule for the calls: active = survival T/C of 150% or more; inactive = T/C below 125% in these data. Starred links: 1 amine or outer side, 2 acyl side, 3 side chain; linkers in the order of their positions; H or OH if unused. Positions of bridges follow the written chain, without caps; N, C: chain ends. Non-standard residues stand in square brackets, D forms with d. Residues, ends and D or L forms follow the SMILES beside them. Chains are numbered I, II in the order given. Actinocin(9to1) = Cc1c2oc3c(C)ccc(C(=O)[*:1])c3nc-2c(C(=O)[*:2])c(N)c1=O; aThr = C[C@H](O)[C@H](N)C(=O)O; NMeV = CN[C@H](C(=O)O)C(C)C; Sar = CNCC(=O)O
Tested on: BALB/c mice, Madison 109 lung carcinoma i.m., survival
Assay: NCI In Vivo Anticancer Drug Screen. Data for tumor model Madison 109 Lung Carcinoma (intramuscular) in BALB/CM mice
Details: endpoint: median survival time, schedule: Q01DX009 (ip), higher = longer survival
Protocol: The antitumor activity of compounds was measured in mice bearing transplantable tumors. Survival or tumor size were measured and the results are expressed as the measurement made in the treated group (T) divided by the measurement made in the vehicle treated control group (C). The tumor model used in this assay is Madison 109 Lung Carcinoma (intramuscular) in BALB/CM mice

[1] = dose: 25.0 mg/kg/injection, vehicle: saline with Tween-80
[2] = dose: 100.0 mg/kg/injection, vehicle: saline with Tween-80
[3] = dose: 400.0 mg/kg/injection, vehicle: saline with Tween-80
[4] = dose: 200.0 mg/kg/injection, vehicle: saline with Tween-80
[5] = dose: 32.0 mg/kg/injection, vehicle: saline
[6] = dose: 64.0 mg/kg/injection, vehicle: saline
[7] = dose: 0.12 mg/kg/injection, vehicle: saline
[8] = dose: 0.25 mg/kg/injection, vehicle: saline
[9] = dose: 0.5 mg/kg/injection, vehicle: saline
[10] = dose: 1.0 mg/kg/injection, vehicle: saline
[11] = dose: 2.0 mg/kg/injection, vehicle: saline
[12] = dose: 4.0 mg/kg/injection, vehicle: saline
[13] = dose: 8.0 mg/kg/injection, vehicle: saline
[14] = dose: 16.0 mg/kg/injection, vehicle: saline
[15] = dose: 50.0 mg/kg/injection, vehicle: saline with Tween-80

Measured: T/C

Nc1ccc(C(=O)O)c(O)c1
inactive: dose: 37.5 mg/kg/injection, vehicle: saline with Tween-80 116 % of control | dose: 75.0 mg/kg/injection, vehicle: saline with Tween-80 116 % of control | dose: 150.0 mg/kg/injection, vehicle: saline with Tween-80 108 % of control | dose: 300.0 mg/kg/injection, vehicle: saline with Tween-80 101 % of control

Cc1c2oc3c(C)ccc(C(=O)N[C@@H]4C(=O)N[C@H](C(C)C)C(=O)N5CCC[C@H]5C(=O)N(C)CC(=O)N(C)[C@@H](C(C)C)C(=O)O[C@H]4C)c3nc-2c(C(=O)N[C@@H]2C(=O)N[C@H](C(C)C)C(=O)N3CCC[C@H]3C(=O)N(C)CC(=O)N(C)[C@@H](C(C)C)C(=O)O[C@H]2C)c(N)c1=O (I: [aThr][dV]P[Sar][NMeV] / II: [aThr][dV]P[Sar][NMeV]; ester I:1-I:C, II:1-II:C; linker I:N-II:N via Actinocin(9to1))
inactive: dose: 0.01 mg/kg/injection, vehicle: saline 111 % of control | dose: 0.02 mg/kg/injection, vehicle: saline 116 % of control | dose: 0.05 mg/kg/injection, vehicle: saline 101 % of control

ClC1C(Cl)C(Cl)C(Cl)C(Cl)C1Cl (configuration not stated)
inactive: [1] 116 % of control | [2] 119 % of control | [3] 86 % of control

Nc1ncnc2c1ncn2C1OC(COP(=O)(O)O)C(O)C1O (configuration not stated)
inactive: dose: 100.0 mg/kg/injection, vehicle: saline 103 % of control and 107 % of control | dose: 200.0 mg/kg/injection, vehicle: saline 102 % of control and 115 % of control | dose: 400.0 mg/kg/injection, vehicle: saline 112 % of control

O=C(O)CCCc1ccc(N(CCCl)CCCl)cc1
inactive: dose: 1.5 mg/kg/injection, vehicle: saline with Tween-80 103 % of control | dose: 3.0 mg/kg/injection, vehicle: saline with Tween-80 101 % of control | dose: 6.0 mg/kg/injection, vehicle: saline with Tween-80 88 % of control

O=C(N[C@H](CO)[C@H](O)c1ccc([N+](=O)[O-])cc1)C(Cl)Cl
inactive: [2] 118 % of control | [4] 107 % of control | [3] 118 % of control

O=c1ccn(C2OC(CO)C(O)C2O)c(=O)[nH]1 (configuration not stated)
inactive: [5] 111 % of control | [6] 99 % of control | dose: 128.0 mg/kg/injection, vehicle: saline 93 % of control | dose: 256.0 mg/kg/injection, vehicle: saline 104 % of control | dose: 512.0 mg/kg/injection, vehicle: saline 98 % of control

O=C1c2c(O)ccc(O)c2C(=O)c2c(NCCNCCO)ccc(NCCNCCO)c21
inactive: [7] 108 % of control | [8] 117 % of control | [9] 123 % of control | [10] 123 % of control

Cc1cn(C2CC(O)C(CO)O2)c(=O)[nH]c1=O (configuration not stated)
inactive: dose: 32.0 mg/kg/injection, vehicle: saline with Tween-80 94 % of control and 101 % of control | dose: 64.0 mg/kg/injection, vehicle: saline with Tween-80 103 % of control and 108 % of control | [2] 108 % of control and 112 % of control | dose: 128.0 mg/kg/injection, vehicle: saline with Tween-80 102 % of control and 105 % of control | [4] 100 % of control and 102 % of control | dose: 256.0 mg/kg/injection, vehicle: saline with Tween-80 95 % of control and 97 % of control | [3] 101 % of control and 103 % of control | dose: 512.0 mg/kg/injection, vehicle: saline with Tween-80 102 % of control and 103 % of control | dose: 800.0 mg/kg/injection, vehicle: saline with Tween-80 106 % of control and 107 % of control | dose: 1600.0 mg/kg/injection, vehicle: saline with Tween-80 96 % of control and 99 % of control

CC1=C(/C=C/C(C)=C/C=C/C(C)=C/CO)C(C)(C)CCC1
inactive: [11] 100 % of control | [12] 100 % of control | [13] 115 % of control | [14] 100 % of control | [5] 98 % of control | [6] 111 % of control

O=c1ccc2ccccc2o1
inactive: [1] 118 % of control | [15] 105 % of control and 111 % of control | [2] 100 % of control and 111 % of control | [4] 113 % of control

COc1ccc(CC2C(=O)NC(C)C(=O)N(C)C3C(=O)N(C)C(Cc4ccc(O)c(c4)Oc4ccc(cc4)C3O)C(=O)NC(C)C(=O)NC(C)C(=O)N2C)cc1 (configuration not stated)
inactive: [7] 110 % of control | [8] 113 % of control | [9] 113 % of control | [11] 103 % of control

CC1=C(/C=C/C(C)=C/C=C/C(C)=C/C(=O)O)C(C)(C)CCC1
inactive: [9] 107 % of control | [10] 110 % of control | [11] 100 % of control | [12] 93 % of control and 94 % of control | [13] 98 % of control and 100 % of control | [14] 108 % of control | [5] 104 % of control

CN(C)/N=N/c1nc[nH]c1C(N)=O
inactive: [1] 124 % of control | [15] 119 % of control | [2] 108 % of control

— PubChem BioAssay AID302 (DTP/NCI, 2004)
